Here are results for 14 compounds from patent US12365687B2 (Hoffmann-La Roche Inc., priority 2021, dated 2025).

The target in assay [1] is human GABAA α1β3γ2 receptor (Homo sapiens (Human), UniProt P14867+P18507). Description: Radioligand binding assay for γ2-containing GABAA subtypes, [3H]Flumazenil competition (α1β3γ2). Conditions: for γ2/γ1 Selectivity Ratio: Ki α1β3γ2 (nM)/Ki α2β2γ1 (nM); for LogSel: Log[Ki α1β3γ2 (nM)/Ki α2β2γ1 (nM)].
The target of assay [2] is α2β2γ1 GABAA receptor subtype (Homo sapiens (Human), UniProt P47869+Q8N1C3). Description: Two-electrode voltage clamp electrophysiology in Xenopus oocytes expressing GABAA receptors (modulation of GABA EC20 current). Format: cell-based. The following applies: for Efficacy (GABA)%: % modulation of GABA EC20 = 100*(Fold increase-1), α2β2γ1 oocytes, compound at approx. 30-fold Ki; for Fold increase h-GABA-A α2β2γ1 oocyte @ 30-fold Ki: Xenopus oocytes expressing α2β2γ1, compound at approx. 30-fold its Ki α2β2γ1, GABA EC20 current. In a few lines: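 Two-electrode voltage clamp at −80 mV, room temperature, 3-5 days after mRNA injection into oocytes. GABA applied at EC20 for 1.5 min, twice, with compound during second application; at least 3 oocytes per concentration. Efficacy = extremum of point-by-point current ratio, expressed as 100×(fold increase−1).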

Assay [3] deals with human GABAA α5β2γ1 receptor (Homo sapiens (Human), UniProt P31644+Q8N1C3). Nature of the assay: Radioligand binding assay for γ1-containing GABAA subtypes, [3H]RO7239181 competition (α5β2γ1).
The target of assay [4] is human GABAA α2β2γ1 receptor (Homo sapiens (Human), UniProt P47869+Q8N1C3). Description: Radioligand binding assay for γ1-containing GABAA subtypes, [3H]RO7239181 competition (α2β2γ1).
Where [5] appears, read: Ki h-GABAA α2β2γ1, [3H]RO7239181 competition binding, human GABAA α2β2γ1.
Setting [6] is: Ki h-GABAA α2β2γ1, displacement of [3H]RO7239181, membranes of HEK293F cells expressing human receptors, means of two determinations.

On to `C[C@@H]1N=C(c2c(F)cccc2F)c2c(ccc(Cl)c2Cl)-n2nc(C(=O)N3CC(C(F)F)C3)nc21` [Example 75, [3-(difluoromethyl)azetidin-1-yl]-[(4S)-7,8-dichloro-6-(2,6-difluorophenyl)-4-methyl-4H-[1,2,4]triazolo[1,5-a][1,4]benzodiazepin-2-yl]methanone], for which, in assay [1], the Ki was determined as 737 nM, the “γ2/γ1 Selectivity Ratio” value was 53.4 and the LogSel came out at 1.73. In assay [2], the “Efficacy (GABA)%” value came out at 41% and the “Fold increase h-GABA-A α2β2γ1 oocyte @ 30-fold Ki” value came to 1.41. This compound gave a Ki in assay [3] of 1.14 nM. Further, the affinity in assay [4] (setting [5]), expressed as Ki, was 13.8 nM. Affinity in assay [4] (setting [6]) was put at a Ki of 13.8 nM.

Regarding `C[C@@H]1N=C(c2c(F)cccc2F)c2c(ccc(Cl)c2Cl)-n2nc(C(=O)N3CC[C@@H](F)C3)nc21` [Example 76, [(4S)-7,8-dichloro-6-(2,6-difluorophenyl)-4-methyl-4H-[1,2,4]triazolo[1,5-a][1,4]benzodiazepin-2-yl]-[(3R)-3-fluoropyrrolidin-1-yl]methanone], the Ki in assay [1] was 968 nM; in assay [3], 1.64 nM; in assay [4] (setting [5]) it was 6.1 nM; in assay [4] (setting [6]) it was 6.1 nM. Further, the “γ2/γ1 Selectivity Ratio” value in assay [1] is listed as 157.7. In addition, the LogSel in assay [1] worked out at 2.20. In assay [2], the “Efficacy (GABA)%” value stood at 52%. Also, the “Fold increase h-GABA-A α2β2γ1 oocyte @ 30-fold Ki” value in assay [2] was found to be 1.52.

`C[C@@H]1N=C(c2c(F)cccc2F)c2c(ccc(Cl)c2Cl)-n2nc(N3CC(C#N)C3)nc21` [Example 77, 1-[(4S)-7,8-dichloro-6-(2,6-difluorophenyl)-4-methyl-4H-[1,2,4]triazolo[1,5-a][1,4]benzodiazepin-2-yl]azetidine-3-carbonitrile]: in assay [1], the inhibition constant Ki was 279 nM, the “γ2/γ1 Selectivity Ratio” value amounted to 27.2 and the LogSel stood at 1.44. In assay [2], the “Efficacy (GABA)%” value amounted to 69% and the “Fold increase h-GABA-A α2β2γ1 oocyte @ 30-fold Ki” value is recorded as 1.69. The affinity in assay [3] corresponds to a Ki of 1 nM. The compound also returned a Ki in assay [4] (setting [5]) of 10.2 nM. The compound also showed a Ki in assay [4] (setting [6]) of 10.2 nM.

On to `C[C@@H]1N=C(c2ncccc2F)c2c(ccc(Cl)c2Cl)-n2nc(C(=O)N3CC[C@@H](F)C3)nc21` [Example 78, [(4S)-7,8-dichloro-6-(3-fluoro-2-pyridyl)-4-methyl-4H-[1,2,4]triazolo[1,5-a][1,4]benzodiazepin-2-yl]-[(3R)-3-fluoropyrrolidin-1-yl]methanone], for which the Ki in assay [1] turned out to be 6900 nM; in assay [3], 18.6 nM; in assay [4] (setting [5]), 96.3 nM; in assay [4] (setting [6]), 96.3 nM. Also, in assay [1], the “γ2/γ1 Selectivity Ratio” value turned out to be 71.6. Further, the LogSel in assay [1] amounted to 1.86. Besides, the “Efficacy (GABA)%” value in assay [2] was 98%. For the same compound, in assay [2], the “Fold increase h-GABA-A α2β2γ1 oocyte @ 30-fold Ki” value is given as 1.98.

For `C[C@@H]1N=C(c2ncccc2F)c2c(ccc(Cl)c2Cl)-n2nc(C(=O)N3CC[C@H](F)C3)nc21` [Example 79, [(4S)-7,8-dichloro-6-(3-fluoro-2-pyridyl)-4-methyl-4H-[1,2,4]triazolo[1,5-a][1,4]benzodiazepin-2-yl]-[(3S)-3-fluoropyrrolidin-1-yl]methanone], in assay [1], the Ki worked out at 3720 nM, the “γ2/γ1 Selectivity Ratio” value turned out to be 76.8 and the LogSel is 1.89. Also, in assay [2], the “Efficacy (GABA)%” value is 129% and the “Fold increase h-GABA-A α2β2γ1 oocyte @ 30-fold Ki” value came to 2.29. For the same compound, in assay [3], the Ki is 7.8 nM. In assay [4] (setting [5]), affinity was put at a Ki of 48.4 nM. The same compound displayed a Ki in assay [4] (setting [6]) of 48.4 nM.

On to `C[C@@H]1N=C(c2c(F)cccc2F)c2c(ccc(Cl)c2Cl)-n2nc(C(=O)N3CC[C@H](F)C3)nc21` [Example 80, [(4S)-7,8-dichloro-6-(2,6-difluorophenyl)-4-methyl-4H-[1,2,4]triazolo[1,5-a][1,4]benzodiazepin-2-yl]-[(3S)-3-fluoropyrrolidin-1-yl]methanone], for which, in assay [1], the Ki was found to be 979 nM, the “γ2/γ1 Selectivity Ratio” value stood at 68.5 and the LogSel worked out at 1.84. In assay [2], the “Efficacy (GABA)%” value is recorded as 89% and the “Fold increase h-GABA-A α2β2γ1 oocyte @ 30-fold Ki” value turned out to be 1.89. Also, the Ki in assay [3] amounted to 1.9 nM. The compound further displayed a Ki in assay [4] (setting [5]) of 14.3 nM. Further, the affinity in assay [4] (setting [6]) corresponds to a Ki of 14.3 nM.

With `C[C@@H]1N=C(c2c(F)cccc2F)c2c(ccc(Cl)c2Cl)-n2nc(C3COC3)nc21` [Example 81, (4S)-7,8-dichloro-6-(2,6-difluorophenyl)-4-methyl-2-(oxetan-3-yl)-4H-[1,2,4]triazolo[1,5-a][1,4]benzodiazepine], the inhibition constant (Ki) in assay [1] was determined as 563 nM; in assay [3], 1.63 nM; in assay [4] (setting [5]), 6.4 nM; in assay [4] (setting [6]), 6.45 nM. The “γ2/γ1 Selectivity Ratio” value in assay [1] turned out to be 87.4. In assay [1], this compound came in with a LogSel of 1.94. In addition, the “Efficacy (GABA)%” value in assay [2] was found to be 53%. In addition, the “Fold increase h-GABA-A α2β2γ1 oocyte @ 30-fold Ki” value in assay [2] came to 1.53.

For `C[C@@H]1N=C(c2c(F)cccc2F)c2c(ccc(Cl)c2Cl)-n2nc(S(C)(=O)=O)nc21` [Example 82, (4S)-7,8-dichloro-6-(2,6-difluorophenyl)-4-methyl-2-methylsulfonyl-4H-[1,2,4]triazolo[1,5-a][1,4]benzodiazepine], in assay [1], the affinity corresponds to a Ki of 2130 nM, the “γ2/γ1 Selectivity Ratio” value amounted to 107.3 and the LogSel amounted to 2.03. Besides, in assay [2], the “Efficacy (GABA)%” value turned out to be 75% and the “Fold increase h-GABA-A α2β2γ1 oocyte @ 30-fold Ki” value turned out to be 1.75. This compound also displayed a Ki in assay [3] of 3.55 nM. The compound also returned a Ki in assay [4] (setting [5]) of 19.8 nM. The compound also gave a Ki in assay [4] (setting [6]) of 19.8 nM.

As for `Cc1nc2n(n1)-c1ccc(C(F)(F)F)c(Cl)c1C(c1ncccc1F)=N[C@H]2C` [Example 83, (4S)-7-chloro-6-(3-fluoro-2-pyridyl)-2,4-dimethyl-8-(trifluoromethyl)-4H-[1,2,4]triazolo[1,5-a][1,4]benzodiazepine], the Ki in assay [1] was determined as 5490 nM; in assay [3], 5.54 nM; in assay [4] (setting [5]), 70.8 nM; in assay [4] (setting [6]), 70.8 nM. For the same compound, the “γ2/γ1 Selectivity Ratio” value in assay [1] is reported as 77.6. The compound further yielded a LogSel in assay [1] of 1.89. The “Efficacy (GABA)%” value in assay [2] is recorded as 154%. The “Fold increase h-GABA-A α2β2γ1 oocyte @ 30-fold Ki” value in assay [2] is 2.54.

With `Cc1nc2n(n1)-c1ccc(Cl)c(Cl)c1C(c1ncccc1F)=N[C@H]2C` [Example 84, (4S)-7,8-dichloro-6-(3-fluoro-2-pyridyl)-2,4-dimethyl-4H-[1,2,4]triazolo[1,5-a][1,4]benzodiazepine], in assay [1], the Ki turned out to be 977 nM, the “γ2/γ1 Selectivity Ratio” value came out at 34.4 and the LogSel was determined as 1.54. Moreover, in assay [2], the “Efficacy (GABA)%” value was 175% and the “Fold increase h-GABA-A α2β2γ1 oocyte @ 30-fold Ki” value is on record as 2.75. In assay [3], this compound registered a Ki of 2.8 nM. In addition, the Ki in assay [4] (setting [5]) came to 28.4 nM. The compound further had a Ki in assay [4] (setting [6]) of 28.4 nM.

For `CCOC1CN(C(=O)c2nc3n(n2)-c2ccc(Cl)c(Cl)c2C(c2ncccc2F)=N[C@H]3C)C1` [Example 86, (3-ethoxyazetidin-1-yl)-[(4S)-7,8-dichloro-6-(3-fluoro-2-pyridyl)-4-methyl-4H-[1,2,4]triazolo[1,5-a][1,4]benzodiazepin-2-yl]methanone], in assay [1], the Ki was found to be 2050 nM, the “γ2/γ1 Selectivity Ratio” value is 55.4 and the LogSel came to 1.74. In assay [2], the “Efficacy (GABA)%” value is 97% and the “Fold increase h-GABA-A α2β2γ1 oocyte @ 30-fold Ki” value is 1.97. In assay [3], this compound gave a Ki of 6.13 nM. Moreover, the inhibitory constant (Ki) in assay [4] (setting [5]) came to 37 nM. In assay [4] (setting [6]), this compound yielded a Ki of 37 nM.

In the case of `CC1CN(C(=O)c2nc3n(n2)-c2ccc(Cl)c(Cl)c2C(c2ncccc2F)=N[C@H]3C)C1` [Example 87, [(4S)-7,8-dichloro-6-(3-fluoro-2-pyridyl)-4-methyl-4H-[1,2,4]triazolo[1,5-a][1,4]benzodiazepin-2-yl]-(3-methylazetidin-1-yl)methanone], in assay [1], affinity was put at a Ki of 3290 nM, the “γ2/γ1 Selectivity Ratio” value was 59.7 and the LogSel is recorded as 1.78. In assay [2], the “Efficacy (GABA)%” value is recorded as 84% and the “Fold increase h-GABA-A α2β2γ1 oocyte @ 30-fold Ki” value came out at 1.84. In addition, the affinity in assay [3] corresponds to a Ki of 5.5 nM. The Ki in assay [4] (setting [5]) stood at 55.2 nM. In assay [4] (setting [6]), this compound showed an inhibitory constant (Ki) of 55.2 nM.

For `C[C@@H]1N=C(c2ncccc2F)c2c(ccc(Cl)c2Cl)-n2nc(C(=O)NC3CC3)nc21` [Example 88, (4S)-7,8-dichloro-N-cyclopropyl-6-(3-fluoro-2-pyridyl)-4-methyl-4H-[1,2,4]triazolo[1,5-a][1,4]benzodiazepine-2-carboxamide], in assay [1], the affinity corresponds to a Ki of 2820 nM, the “γ2/γ1 Selectivity Ratio” value worked out at 31.2 and the LogSel is 1.49. For the same compound, in assay [2], the “Efficacy (GABA)%” value is reported as 162% and the “Fold increase h-GABA-A α2β2γ1 oocyte @ 30-fold Ki” value came out at 2.62. The compound also showed a Ki in assay [3] of 10.1 nM. Also, the Ki in assay [4] (setting [5]) was 90.6 nM. In addition, in assay [4] (setting [6]), affinity was put at a Ki of 90.6 nM.

Regarding `CO[C@H]1CCN(C(=O)c2nc3n(n2)-c2ccc(Cl)c(Cl)c2C(c2ncccc2F)=N[C@H]3C)C1` [Example 89, [(4S)-7,8-dichloro-6-(3-fluoro-2-pyridyl)-4-methyl-4H-[1,2,4]triazolo[1,5-a][1,4]benzodiazepin-2-yl]-[(3S)-3-methoxypyrrolidin-1-yl]methanone], in assay [1], the affinity corresponds to a Ki of 6350 nM, the “γ2/γ1 Selectivity Ratio” value stood at 91.2 and the LogSel was 1.96. In assay [2], the “Efficacy (GABA)%” value is given as 113% and the “Fold increase h-GABA-A α2β2γ1 oocyte @ 30-fold Ki” value was 2.13. In assay [3], this compound showed a Ki of 6.15 nM. In assay [4] (setting [5]), this compound registered a Ki of 69.7 nM. In assay [4] (setting [6]), this compound registered a Ki of 69.7 nM.
